From PubChem BioAssay AID2384 (Southern Research Specialized Biocontainment Screening …, 2010)

Tested on: S. typhi GFP reporter counter-screen, fluorescence, 4 h
Assay: S. typhi counter-screen signal inhibition – fluorescence, 4 h, counter-screen for PhoP regulon inhibitor project, dose response (AID 2384)

| Structure (SMILES) | IC50 [µM] |
| --- | --- |
| O=[N+]([O-])c1ccc(O)c2ncccc12 | 0.79 |
| COc1ccc(NC2=NC3(CCCCC3)N=C(N)N2)cc1 | 138 |
| O=C(Cn1nc(CNc2ccc(Cl)cc2)[n+]2c1CCCCC2)c1ccc(Br)cc1 | 57.2 |
| CN1CCC(=C2c3ccccc3C=Cc3ccccc32)CC1 | 77.5 |
| Cc1ccc(-n2c(-c3ccc(Br)cc3)c[n+]3c2CCc2ccc4cccnc4c2-3)cc1 | 40.6 |
| CN1/C(=C\C=C\C2=[N+](C)c3ccc4ccccc4c3C2(C)C)C(C)(C)c2ccccc21 | 8.85 |
| CCCCCCCC(=O)N/N=C/c1ccc([N+](=O)[O-])o1 | 40.2 |
| CN(C)CCCNC(=O)c1ccc(-c2nc(-c3ccc(Cl)cc3)cs2)cc1 | 19.7 |
| Nc1nnnn1/N=C/c1cc([N+](=O)[O-])ccc1O | 52.1 |
| O=C1CSC(=S)N1c1cccnc1 | 78.8 |
| Cc1ccccc1S(=O)(=O)NNC(=O)C(=O)NNc1ccccn1 | 36.6 |
| Cc1cc(C)n(/N=C/c2cc([N+](=O)[O-])ccc2O)c(=O)c1 | 39.5 |
| CCc1cccc2c(C(=O)COC(=O)c3ccc([N+](=O)[O-])s3)c[nH]c12 | 18.7 |
| COc1ccc(-c2cnc(NCc3cc4c(cc3[N+](=O)[O-])OCO4)n2C)cc1 | 145 |
| O=C(Nc1cccc(Cl)c1)Nc1nccs1 | 57.3 |
| O=C(Nc1nc(-c2ccccn2)cs1)c1ccc(Cl)s1 | 21.3 |
| O=C(Nc1cccc(N=Cc2cc(Cl)cc(Br)c2O)c1)c1ccco1 | 60 |
| Cc1ccc2nc(N(CCCN(C)C)C(=O)c3sc4ccccc4c3Cl)sc2c1 | 24.3 |
| O=c1c2ccccc2nc(N/N=C/c2c(O)ccc3ccccc23)n1O | 16.2 |
| Oc1c(Cl)cc(CN2CCCCC2)c2cccnc12 | 9.15 |
| CCCCOc1ccc(NC2=NC3(CCCC3)N=C(N)N2)cc1 | 94.8 |
| CCCCCCCCCCCCOC(=O)C[N+](C)(C)C | 19.9 |
| C#CCOCCOCCOCCNc1nc(N2CCN(C(=O)[C@H](Cc3ccc(O)cc3)n3cc([C@@H](N)C(C)CC)nn3)CC2)nc(N2CCN(C(=O)[C@H](Cc3cc4ccccc4[nH]3)n3cc([C@@H](N)Cc4ccc(O)cc4)nn3)CC2)n1 (some centres not stated) | 32.5 |

| Structure (SMILES) | IC50 [µM] |
| --- | --- |
| CC(=O)NC(c1ccc2ccccc2c1)c1ccc2cccnc2c1O (configuration not stated) | 66.7 |
| COc1c(N2CCN(C(=S)Nc3ccccc3F)C(C)C2)c(F)cc2c(=O)c(C(=O)O)cn(C3CC3)c12 (configuration not stated) | 9.45 |
| CCCCCC(=O)NNC(=S)NC(C)=O | 29.1 |
| Cc1cc(O)c2c(c1)C(=O)C13C(=C2O)C(=O)[C@H]2[C@@H](O)[C@@H]1[C@H]1[C@H](O)[C@@H]3C(=O)C3=C(O)c4c(O)cc(C)cc4C(=O)C312 (some centres not stated) | 7.46 |
| CCc1ccc2c(c1)Sc1ccccc1CC2N1CCN(C)CC1 (configuration not stated) | 31.3 |
| CSc1ccc2c(c1)N(CCC1CCCCN1C)c1ccccc1S2 (configuration not stated) | 37.2 |
| Cc1ccc(OCC(O)Cn2c(=N)n(CCN3CCCCC3)c3ccccc32)cc1 (configuration not stated) | 13.4 |
| CNCCCC1c2ccccc2C=Cc2ccccc21 | 67.1 |
| CCn1cc(C(=O)O)c(=O)c2cc(F)c(N3CCN(C(=S)NC(=O)c4cc(OC)cc(OC)c4)CC3)cc21 | 143 |
| Cc1nc2ccccn2c1C(=O)N/N=C/c1ccc([N+](=O)[O-])o1 | 42.6 |
| CCCCC(=O)NNC(=S)NC(=O)CCC | 92.6 |
| CCn1cc(C(=O)O)c(=O)c2cc(F)c(N3CCN(C(=S)Nc4ccc(OC)cc4)CC3)cc21 | 35.9 |
| O=C(Cc1ccc(Br)cc1)c1ccc(O)cc1O | 107 |
| CCc1ccc(N2CC(C(=O)N/N=C/c3cc([N+](=O)[O-])ccc3O)CC2=O)cc1 (configuration not stated) | 48.7 |
| COc1c(N2CCN(C(=S)NC3CC4CCC3C4)C(C)C2)c(F)cc2c(=O)c(C(=O)O)cn(C3CC3)c12 (configuration not stated) | 44.1 |
| COc1ccc(C(=O)N/N=C/c2sc3ccccc3c2O)cc1 | 62.6 |
| NC(=O)SCC(=O)Nc1cccc(Cl)c1 | 60.9 |
| CCCCCCCCC[n+]1cccc2c3ccccc3ccc21 | 15.1 |
| CN(C)c1ccc2nc3ccc(=[N+](C)C)cc-3sc2c1 | 45.3 |
| CC(=O)NC(=S)NNC(=O)c1ccc(Br)cc1 | 29.4 |
| O=C1C=CC(=O)N1CCCCCCN1C(=O)C=CC1=O | 79.8 |
| O=C(N/N=C/c1ccc(N2CCCC2)c([N+](=O)[O-])c1)c1cccnc1 | 104 |
| OC(CNCCc1ccc(Cl)cc1Cl)COc1ccccc1 (configuration not stated) | 37.3 |

| Structure (SMILES) | IC50 [µM] |
| --- | --- |
| O=C(c1ccccc1)c1c2c(cc3sc4ccccc4[n+]13)-c1cccc3cccc-2c13 | 55.4 |
| [O-][n+]1cccc2c(Br)cc(Br)c(O)c21 | 36.6 |
| OCCN1CCN(C2CCC(c3ccc(F)cc3)c3ccc(F)cc32)CC1 (configuration not stated) | 15.9 |
| C/C(=N\N=C(N)N)c1ccc(Cl)c(Cl)c1 | 64.4 |
| Fc1ccc(CCNCc2ccccc2Cl)cc1 | 83.2 |
| CC(C)(c1ccccc1)c1ccc(OCCCN2CCNCC2)cc1 | 39.7 |
| CC(C)(c1ccccc1)c1ccc(OCCCNCCO)cc1 | 29 |
| COCCCNC(=S)NNC(=O)c1ccccn1 | 23.7 |
| N=c1c2c(n(Cc3ccc(Cl)cc3)c3c1CCC3)CCC2 | 79.7 |
| CCCCCCCCC1=NCCc2c1[nH]c1ccccc21 | 78.4 |
| N/C(=N\OS(=O)(=O)c1ccc2ccccc2c1)c1cccnc1 | 17.3 |
| O=C(N/N=C/c1cc([N+](=O)[O-])ccc1O)C1CC1 | 20.2 |
| CC12CN3CC(C)(CN(C1)C3c1ccc(Br)cc1O)C2 (configuration not stated) | 143 |
| O=C(N/N=C/c1ccc([N+](=O)[O-])o1)C1CCCC1 | 37 |
| CCCCCCCCCCCCCCCC[N+](C)(C)C | 19.3 |
| Nc1ncn([C@@H]2O[C@H](CO)[C@@H](O)[C@H]2O)c(=O)n1 | 46.2 |
| C#CCOCCOCCOCCNc1nc(N2CCN(C(=O)CCCCCCCCCCNC(=O)Cn3cc(C[C@@H](C)O)nn3)CC2)nc(N2CCN(C(=O)CCCCCCCCCCNC(=O)[C@@H]([C@H](C)CC)n3cc(CCCCCN)nn3)CC2)n1 | 141 |
| COc1ccc(C2NCCc3c2[nH]c2ccccc32)cc1COc1ccc(F)cc1 (configuration not stated) | 35.1 |
| Clc1ccc(-c2cc(C3CCNCC3)[nH]n2)c(Cl)c1 | 18.2 |
| OCCNc1nc(Nc2ccccc2)nc2ccccc12 | 22.4 |
| C/C(=N\NC(=O)c1ccc(CN2CCc3ccccc3C2)cc1)c1ccccc1O | 51.8 |
| CN1CCN(c2nc(Nc3ccc(F)cc3)nc(Nc3ccc(F)cc3)n2)CC1 | 86.7 |
| Nc1nonc1-n1nnc(C(=O)N/N=C/c2ccccc2O)c1CN1CCCC1 | 112 |

| Structure (SMILES) | IC50 [µM] |
| --- | --- |
| Oc1ccc(COCc2ccccc2)c2cccnc12 | 29.2 |
| O=C(Nc1nnc(-c2ccccn2)o1)c1cccc(Cl)c1 | 91.9 |
| CO[C@H]1/C=C/O[C@@]2(C)Oc3c(C)c(O)c4c(O)c(c(C=NN5CCN(C)CC5)c(O)c4c3C2=O)NC(=O)/C(C)=C\C=C\[C@H](C)[C@H](O)[C@@H](C)[C@@H](O)[C@@H](C)[C@H](OC(C)=O)[C@@H]1C | 8.94 |
| CC(C(=O)NC1C=CS(=O)(=O)C1)N1C(=O)/C(=C/c2cccc(Cl)c2)SC1=S (configuration not stated) | 59.2 |
| COc1ccc2c(c1OC)C(=O)N(c1ccc(C)cc1)C2=O | 105 |
| Cc1ccc(-c2csc(N=C(N)N)n2)c(C)c1 | 46.3 |
| CNC[C@H](CC1CCCCC1)NC[C@H](Cc1ccccc1)NCCC12CC3CC(CC(C3)C1)C2 | 10.4 |
| Cc1cccc2c1Sc1ccc(Cl)cc1CC2N1CCNCC1 (configuration not stated) | 71.8 |
| Oc1c(Br)cc(Br)cc1C=Nc1cccc2ncccc12 | 21.8 |
| O=C(Nc1nnc(-c2cccs2)o1)c1cccc(C(F)(F)F)c1 | 26.4 |
| OCCCCNCc1ccc(OCc2ccccc2Cl)cc1 | 86 |
| Nc1nc2ccccc2n1CCOc1ccccc1Cl | 40.7 |
| NC1=NC2(CCCCC2)N=C(Nc2ccc(Br)cc2)N1 | 35.9 |
| Oc1c(Br)cc(Br)cc1C=NCc1ccccc1 | 40.4 |
| CN(C)CCCN(C(=O)CCc1ccccc1)c1nc2ccc(Br)cc2s1 | 32.8 |
| Cc1ccc(C(OCC(O)CNCc2ccc(F)cc2)c2ccccc2)cc1 (configuration not stated) | 37 |
| O=C(N/N=C/c1ccc([N+](=O)[O-])o1)c1ccc(O)cc1 | 37.6 |
| Cc1ccc2cc(CN(CCN(C)C)C(=O)Nc3ccc(Cl)cc3)c(=O)[nH]c2c1 | 50.3 |
| NS(=O)(=O)OCCCc1ccc(C(F)(F)F)cc1 | 145 |
| CCc1ccc(NC(=O)Nc2ccncc2)cc1 | 88.4 |
| O=C(Cn1cncn1)N/N=C/c1ccccc1O | 150 |
| Oc1cccc2ccc(Nc3ccccn3)nc12 | 7.38 |
| CO[C@H]1C=CO[C@@]2(C)Oc3c(C)c(O)c4c(O)c(c(C=NN5CCN(C)CC5)c(O)c4c3C2=O)NC(=O)C(C)=CC=C[C@H](C)[C@H](O)[C@@H](C)[C@@H](O)[C@@H](C)[C@H](OC(C)=O)[C@@H]1C | 35.4 |

| Structure (SMILES) | IC50 [µM] |
| --- | --- |
| NC(N)=N/N=C/c1ccc(OCc2ccc(Cl)cc2Cl)cc1 | 10.3 |
| OCCNCc1cc(Br)ccc1OCc1ccc(Cl)cc1 | 34.7 |
| O=C(CNC(=O)c1ccccc1)N/N=C/c1ccc([N+](=O)[O-])s1 | 28.7 |
| CN(C)CCCN(C(=O)COc1ccccc1)c1nc2ccc(Cl)cc2s1 | 40.5 |
| O=C(Oc1c(Br)cc([N+](=O)[O-])cc1Br)c1cccnc1 | 28.5 |
| Oc1ccc(N=Nc2ccc(Br)cc2)c(O)c1 | 100 |
| COc1ccc(Nc2c3ccccc3nc3ccccc23)cc1 | 23.7 |
| O=C(Cn1nc(CNc2ccc(Br)cc2)[n+]2c1CCCCC2)c1ccc([N+](=O)[O-])cc1 | 35 |
| Clc1ccc(CNCc2cccs2)cc1Cl | 45.4 |
| O=S(=O)(Nc1c(S(=O)(=O)c2ccccc2)c2nc3ccccc3nc2n1C1CCCCC1)c1ccccc1 | 5.67 |
| Cc1cc(C2N=C(N)Nc3nc4ccccc4n32)c(C)n1-c1ccccc1Cl (configuration not stated) | 32.8 |
| O=C(O)c1cn(C2CC2)c2cc(N3CCN(S(=O)(=O)c4ccc5c(c4)OCCO5)CC3)c(F)cc2c1=O | 15.9 |
| O=C(CSc1nc2ccccc2s1)N/N=C/c1cc([N+](=O)[O-])ccc1O | 60.8 |
| CCCCc1c(O)nc(SCC(=O)Nc2ccc3c(c2)CCC3)[nH]c1=O | 112 |
| Cc1ccc(C(=O)O)cc1N=Cc1cc(Br)cc(Br)c1O | 16.7 |
| COc1cc(CNCCO)cc(Cl)c1OCc1ccc(Cl)cc1Cl | 22.4 |
| Cc1occc1C(=O)N/N=C/C=C/c1ccccc1 | 97.1 |
| Cc1ccc(-c2csc(NC(=O)C[n+]3cc(-c4ccc(C)cc4)n4c3CCC4)n2)cc1 | 19.3 |
| O=C(N/N=C/c1cc(Br)ccc1O)c1ccccc1Cl | 112 |
| CCCc1nnc(NC(=O)c2cn(CC)c3cc(N4CCN(C)CC4)c(F)cc3c2=O)s1 | 61.6 |
